Measurements from patent US10239843B2 (CANCER RESEARCH TECHNOLOGY LIMITED, priority 2014, dated 2019).
Where two headings read alike, the source gives them in different places.

Experiments:
Human Full Length PARG = Human Full Length PARG (Homo sapiens (Human), UniProt Q86W56); assay: PARG enzyme assay (TR-FRET); format: biochemical
PARG in HeLa cell line = assay: PARG cell assay (PAR chain immunofluorescence after MMS); format: cell-based; conditions: HeLa cells
Method in brief: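 HeLa cells were dosed with compound for 1 h, then given MMS at 50 μg/mL final for a further hour. Cells were methanol-fixed, permeabilised and stained overnight at 4° C with anti-PAR monoclonal antibody. Retained nuclear PAR chains, detected by indirect immunofluorescence, indicate PARG inhibition.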

[1] = Homo sapiens, MMS treatment, read-out: PARG Cell IC50
[2] = read-out: PARG Biochem IC50 Geomean
[3] = Homo sapiens, MMS 50 μg/mL, read-out: PARG Cell IC50 Geomean

Sequence of Human Full Length PARG (Q86W56 whole entry): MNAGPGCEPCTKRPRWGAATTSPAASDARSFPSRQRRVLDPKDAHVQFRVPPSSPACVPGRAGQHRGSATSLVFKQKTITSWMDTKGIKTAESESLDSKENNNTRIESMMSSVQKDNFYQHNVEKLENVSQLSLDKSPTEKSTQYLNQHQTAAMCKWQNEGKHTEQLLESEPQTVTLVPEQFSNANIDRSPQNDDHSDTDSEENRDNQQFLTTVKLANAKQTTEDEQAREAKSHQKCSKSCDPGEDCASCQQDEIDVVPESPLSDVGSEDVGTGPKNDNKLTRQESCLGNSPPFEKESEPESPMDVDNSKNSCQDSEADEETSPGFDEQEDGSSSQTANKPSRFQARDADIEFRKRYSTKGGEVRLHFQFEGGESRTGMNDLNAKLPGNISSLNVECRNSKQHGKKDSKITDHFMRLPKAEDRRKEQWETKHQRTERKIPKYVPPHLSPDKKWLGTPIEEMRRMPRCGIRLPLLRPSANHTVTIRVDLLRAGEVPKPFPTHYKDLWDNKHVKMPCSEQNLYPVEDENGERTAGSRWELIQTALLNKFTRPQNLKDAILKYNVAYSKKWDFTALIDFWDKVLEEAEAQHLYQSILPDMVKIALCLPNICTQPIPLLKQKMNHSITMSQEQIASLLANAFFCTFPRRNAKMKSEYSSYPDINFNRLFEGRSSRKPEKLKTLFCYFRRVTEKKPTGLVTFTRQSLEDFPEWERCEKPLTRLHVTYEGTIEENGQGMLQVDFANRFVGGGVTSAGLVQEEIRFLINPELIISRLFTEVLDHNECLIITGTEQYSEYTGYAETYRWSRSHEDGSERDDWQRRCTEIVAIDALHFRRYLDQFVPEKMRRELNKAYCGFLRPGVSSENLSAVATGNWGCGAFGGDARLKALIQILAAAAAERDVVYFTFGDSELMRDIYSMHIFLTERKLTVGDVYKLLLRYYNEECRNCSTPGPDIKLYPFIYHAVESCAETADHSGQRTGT

SMILES: Cc1oncc1Cn1c(=O)c2cc(S(=O)(=O)NC3(C)CC3)ccc2n(C)c1=O [Example 506, 1-Methyl-N-(1-methylcyclopropyl)-3-[(5-methylisoxazol-4-yl)methyl]-2,4-dioxo-quinazoline-6-sulfonamide]
- IC50 (Human Full Length PARG; read-out: PARG Biochem IC50): 770 nM
- IC50 (PARG in HeLa cell line; [1]): 539 nM

SMILES: Cc1cc(Cn2nc(OC3COC3)c3ccc(S(=O)(=O)NC4(C)CC4)cc3c2=O)on1 [Example 317]
- IC50 (Human Full Length PARG; [2]): 487 nM
- IC50 (PARG in HeLa cell line; MMS 50 μg/mL, read-out: PARG Cell IC50 Geomean): 912 nM

SMILES: Cc1cc(Cn2c(=O)c3cc(S(=O)(=O)NC4(C)CC4)ccc3n(CC3(C#N)CC3)c2=O)on1 [Example 420, 1-[(1-Cyanocyclopropyl)methyl]-N-(1-methylcyclopropyl)-3-[(3-methylisoxazol-5-yl)methyl]-2,4-dioxo-quinazoline-6-sulfonamide]
- IC50 (Human Full Length PARG; read-out: PARG Biochem IC50): 140 nM
- IC50 (PARG in HeLa cell line; [1]): 163 nM

SMILES: Cc1cc(Cn2c(=O)c3cc(S(=O)(=O)NC4(C)CC4)ccc3n(CC#N)c2=O)on1 [Example 503, 1-(Cyanomethyl)-N-(1-methylcyclopropyl)-3-[(3-methylisoxazol-5-yl)methyl]-2,4-dioxo-quinazoline-6-sulfonamide]
- IC50 (Human Full Length PARG; read-out: PARG Biochem IC50): 604 nM
- IC50 (PARG in HeLa cell line; [1]): 350 nM

SMILES: Cn1cc(Cn2c(=O)c3cc(S(=O)(=O)NC4(CF)CC4)ccc3n(Cc3cncn3C)c2=O)cn1 [Example 588, N-[1-(Fluoromethyl)cyclopropyl]-1-[(3-methylimidazol-4-yl)methyl]-3-[(1-methylpyrazol-4-yl)methyl]-2,4-dioxo-quinazoline-6-sulfonamide]
- IC50 (Human Full Length PARG; read-out: PARG Biochem IC50): 19 nM
- IC50 (PARG in HeLa cell line; [1]): 1500 nM

SMILES: Cc1cc(Cn2c(=O)c3cc(S(=O)(=O)NC4(C)CC4)ccc3n(CCCO)c2=O)on1 [Example 407, 1-(3-Hydroxypropyl)-N-(1-methylcyclopropyl)-3-[(3-methylisoxazol-5-yl)methyl]-2,4-dioxo-quinazoline-6-sulfonamide]
- IC50 (Human Full Length PARG; read-out: PARG Biochem IC50): 394 nM
- IC50 (PARG in HeLa cell line; [1]): 625 nM

SMILES: Cc1ncc(Cn2c(=O)c3cc(S(=O)(=O)NC4(C)CC4)ccc3n(Cc3ccc(F)cc3)c2=O)s1 [Example 176]
- IC50 (Human Full Length PARG; [2]): 89 nM
- IC50 (PARG in HeLa cell line; [3]): 85 nM

SMILES: Cn1cc(Cn2c(=O)c3cc(S(=O)(=O)NC4(CF)CC4)ccc3n(Cc3cn[nH]c3)c2=O)cn1 [Example 590, N-[1-(Fluoromethyl)cyclopropyl]-3-[(1-methylpyrazol-4-yl)methyl]-2,4-dioxo-1-(1H-pyrazol-4-ylmethyl)quinazoline-6-sulfonamide]
- IC50 (Human Full Length PARG; read-out: PARG Biochem IC50): 30 nM
- IC50 (PARG in HeLa cell line; [1]): 773 nM

SMILES: Cc1cc(Cn2c(=O)c3cc(S(=O)(=O)NC4(CF)CC4)ccc3n(CC3CC3)c2=O)on1 [Example 517, 1-(Cyclopropylmethyl)-N-[1-(fluoromethyl)cyclopropyl]-3-[(3-methylisoxazol-5-yl)methyl]-2,4-dioxo-quinazoline-6-sulfonamide]
- IC50 (Human Full Length PARG; read-out: PARG Biochem IC50): 56 nM
- IC50 (PARG in HeLa cell line; [1]): 41 nM

SMILES: COCCn1c(=O)n(Cc2cnn(C)c2)c(=O)c2cc(S(=O)(=O)NC3(C)CC3)ccc21 [Example 270]
- IC50 (Human Full Length PARG; [2]): 128 nM
- IC50 (PARG in HeLa cell line; [3]): 102 nM

SMILES: Cc1cc(Cn2c(=O)c3cc(S(=O)(=O)NC4(CF)CC4)ccc3n(Cc3cc(C)nn3C)c2=O)on1 [Example 519, 1-[(2,5-Dimethylpyrazol-3-yl)methyl]-N-[1-(fluoromethyl)cyclopropyl]-3-[(3-methylisoxazol-5-yl)methyl]-2,4-dioxo-quinazoline-6-sulfonamide]
- IC50 (Human Full Length PARG; read-out: PARG Biochem IC50): 50 nM
- IC50 (PARG in HeLa cell line; [1]): 312 nM

SMILES: Cc1cc(Cn2c(=O)c3cc(S(=O)(=O)NC4(C)CC4)ccc3n(CCCN3CCN(C)CC3)c2=O)on1 [Example 342]
- IC50 (Human Full Length PARG; [2]): 307 nM
- IC50 (PARG in HeLa cell line; [3]): 853 nM

SMILES: Cc1cc(Cn2c(=O)n(Cc3cnn(C)c3)c(=O)c3cc(S(=O)(=O)NC(C)(C)C)ccc32)n(C)n1 [Example 480]
- IC50 (Human Full Length PARG; read-out: PARG Biochem IC50): 784 nM
- IC50 (PARG in HeLa cell line; MMS treatment, read-out: PARG Cell IC50): 1530 nM

SMILES: Cc1cc(Cn2c(=O)c3cc(S(=O)(=O)NC4(C)CC4)ccc3n(CC3CCSCC3)c2=O)on1 [Example 381]
- IC50 (Human Full Length PARG; [2]): 126 nM
- IC50 (PARG in HeLa cell line; [3]): 208 nM
